Legend:
[1] = tested on: Serratia marcescens, Db1108; test: anti-bacterial specificity, killing time; format: cell-based; details: time required for killing 90% of the bacteria; 3 x 10^6 cells/ml
Excerpt: (§1) The lysis of E. coli is believed to be due to at least two very similar small and basic proteins designated P9A and P9B. The P9 proteins are active against gram negative bacteria such as E. coli K12 strain D21f2, E. coli K12 strain D21, E. coli K12 strain D31, Enterobacter cloacae, β11, Pseudomonas aeruginosa, OT97, and Serratia marcescens, Db1108 but not S. marcescens Db11. The E. coli K12, strain D31 is a penicillin and streptomycin resistant mutant with a defective lipopolysaccharide. S. marcescens Db11 is a streptomycin resistant mutant derived from a parental strain, pathologic for Drosophila. S. marcescens Db1108 is a spontaneous phage resistant mutant of Db11. The bacterial strains are discussed in Boman, H. G., Nilsson-Faye, I., Paul, K. & Rasmuson, T. (1974) Infect. Immun. 10, 136-145; Monner, D. A., Jonsson, S. & Boman, H. G. (1971) J. Bacteriol. 107, 420-432; and Boman, H. G. & Monner, D. A. (1975) J. Bacteriol. 121, 455-464.
(§2) The anti-bacterial specificity of P9 proteins was determined for gram negative bacteria. Killing time shown in Table 4 is the time required for killing 90% of the bacteria. […] It is also clear that the heptose-less mutant E. coli D21f2 and S. marcescens Db1108 both were more sensitive to P9 proteins than their respective parental strains, D21 and Db11.

[2] = tested on: Escherichia coli K12, D21f2; test: anti-bacterial specificity, killing time; format: cell-based; details: time required for killing 90% of the bacteria; 3 x 10^6 cells/ml
Excerpt: as §1, §2

[3] = tested on: Escherichia coli K12, D21; test: anti-bacterial specificity, killing time; format: cell-based; details: time required for killing 90% of the bacteria; 4 x 10^6 cells/ml
Excerpt: as §1, §2

[4] = tested on: Pseudomonas aeruginosa, OT97; test: anti-bacterial specificity, killing time; format: cell-based; details: time required for killing 90% of the bacteria; 4 x 10^6 cells/ml
Excerpt: as §1, §2

[5] = tested on: Enterobacter cloacae, β11; test: anti-bacterial specificity, killing time; format: cell-based; details: time required for killing 90% of the bacteria; 3 x 10^6 cells/ml
Excerpt: as §1, §2

[6] = tested on: Serratia marcescens, Db11; test: anti-bacterial specificity, killing time; format: cell-based; details: time required for killing 90% of the bacteria; 3 x 10^6 cells/ml
Excerpt: as §1, §2

[7] = tested on: E. coli; test: influence of anions on lytic activity of P9 proteins; format: cell-based, Escherichia coli; details: 0.045 M MES-buffer, pH 6.3
Method: The lytic activity of the P9 proteins against E. coli at each stage of the process can be determined turbidimetrically and the total weight of protein measured. For this purpose, one unit of lytic activity is defined as the amount of factor giving 50% reduction of the absorbance of […] (50% lysis) compared to a control. […] A small volume, usually 10 μl, of the sample to be tested is added to 1 ml of bacterial suspension in an ice bath. In the control samples, an equal amount of buffer is substituted. The mixture is incubated (30 minutes at 37° C.) and transferred back to the ice bath during which most of the clearing of the E. coli suspension occurs. Results of such a determination, usually measured within 1 h, are tabulated below in Table 1.
The effects of sulfate or phosphate ions are hardly significant. The presence of acetate and formate buffers during the chromatography sequences until their removal by freeze-drying should be taken into account in interpreting the recovery data for protein P9 B in Table 1.

[8] = tested on: E. coli, strain D31; test: turbidimetric lytic activity against E. coli; format: cell-based, Escherichia coli; details: for Specific Lytic Activity: 1 unit = 50% lysis; for specific lytic activity against E. coli compared with immune hemolymph: versus starting material
Excerpt: The lytic activity of the P9 proteins against E. coli at each stage of the process can be determined turbidimetrically and the total weight of protein measured. For this purpose, one unit of lytic activity is defined as the amount of factor giving 50% reduction of the absorbance of […] (50% lysis) compared to a control. Log phase E. coli, strain D31 can be centrifuged and suspended in ice-cold 0.1 M phosphate buffer, pH 6.4, to give a density of 30 units on a Klett-Summerson colorimeter (A570 0.3-0.5). A small volume, usually 10 μl, of the sample to be tested is added to 1 ml of bacterial suspension in an ice bath. In the control samples, an equal amount of buffer is substituted. The mixture is incubated (30 minutes at 37° C.) and transferred back to the ice bath during which most of the clearing of the E. coli suspension occurs. Results of such a determination, usually measured within 1 h, are tabulated below in Table 1.

[9] = tested on: E. coli; test: heat stability in boiling water bath, remaining lytic activity; format: physicochemical, Escherichia coli
Excerpt: FIG. 3 is a graph depicting the effect of heat on the lytic activity of lysozyme and P9 proteins. The filled symbols in the figure indicate a pH of 6.4; the open symbols indicate a pH of 3.2. Activity against E. coli is denoted in the figure by triangles; activity against M. Luteus is denoted by squares.
The activity against E. coli (triangles) is compared in FIG. 3 to the activity against M. luteus (squares). The former activity is associated with the P9 proteins and the latter with the lysozyme.

[10] = tested on: E. coli D31; test: simultaneous decrease of absorbance at 570 nm and viable count; format: cell-based, Escherichia coli; details: eight units per ml, 1 min
Method: For E. coli D31 the effect of P9 proteins can be observed by simultaneously following the decrease in the absorbance at 570 nm and the viable count of E. coli. Eight units of protein P9 B per ml in 1 min gave a reduction of viable count from 10^8 to <10^5 while the absorbance dropped 14%.

[11] = added salt: Ammonium formate, ionic strength 0.15 M
[12] = added salt: None, ionic strength 0.15 M with sodium chloride
[13] = added salt: Sodium acetate, ionic strength 0.15 M
[14] = added salt: Sodium phosphate, ionic strength 0.15 M
[15] = added salt: Sodium sulfate, ionic strength 0.15 M
[16] = fraction after Step 1 of chromatography

Row | Substance | Killing Time [1] | Killing Time [2] | Killing Time [3] | Killing Time [4] | Killing Time [5] | Killing Time [6] | Relative Activity [7, 11] | Relative Activity [7, 12] | Relative Activity [7, 13] | Relative Activity [7, 14] | Relative Activity [7, 15] | Specific Lytic Activity ([8]; after Step 2 and freeze-drying) | Specific Lytic Activity [8, 16] | specific lytic activity against E. coli compared with immune hemolymph [8] | heat stability in words [9] | drop of absorbance at 570 nm [10] | viable count after treatment ([10]; reduction from 10^8) | increase in activity ([7]; acetate or formate ions, ionic strength 0.15 M with sodium chloride)
1 | N-LYS-TRP-LYS-LEU-PHE-LYS-LYS-ILE-GLU-LYS-VAL-GLY-GLN-ASN-ILE-ARG-ASP-GLY- ILE-ILE-LYS-ALA-GLY-PRO-ALA-VAL-ALA-VAL-VAL-GLY-GLN-ALA-THR-C (KWKLFKKIEKVGQNIRDGIIKAGPAVAVVGQAT; printed: LYS-TRP-LYS-LEU-PHE-LYS-LYS-ILE-GLU-LYS-VAL-GLY-GLN-ASN-ILE-ARG-ASP-GLY- ILE-ILE-LYS-ALA-GLY-PRO-ALA-VAL-ALA-VAL-VAL-GLY-GLN-ALA-THR-) [P9 A] | 48 min | < 0.25 min | 0.60 min | 10 min | 12 min | > 120 min | 1.3 | 1.0 | 0.9 | 0.8 | 0.6 | 5.6 Units/μg of protein | 4.4 Units/μg of protein | substantially greater | heat stable | – | – | –
2 | N-LYS-TRP-LYS-VAL-(MET)-ILE-(PHE)-LYS-LYS-ILE-(PHE)-GLU-LYS- -GLY-ARG-ASN-ILE-(PHE)-ARG-ASN-(LYS)-GLY- [P9 B] | 115 min | < 0.25 min | 1 min | 5 min | 15 min | > 120 min | 4.5 | 1.0 | 4.1 | 1.3 | 1.2 | 1.9 Units/μg of protein | 5.3 Units/μg of protein | substantially greater | heat stable | 14% | < 10^5 | four-fold increase

Reference: patent US4355104A, “Bacteriolytic proteins” (priority 1980, dated 1982)
